From ChEMBL document CHEMBL1153891, “Bioactivity-guided isolation of cytotoxic constituents of Brucea javanica collected in Vietnam” (2009)

Experiments:
[1] = tested on: MCF7; assay: Cytotoxicity against human MCF7 cells after 2 days by sulforhodamine B assay; type: functional; conditions: MCF7, 48 h, read-out: ED50 (the source's name)
[2] = tested on: MDR; assay: Inhibition of MDR pump assessed as potentiation of bruceantin-induced cytotoxicity against human MCF7 cells at 20 ug/mL after 2 days by sulforhodamine B assay; type: cell-based
[3] = tested on: Lu1; assay: Cytotoxicity against human Lu1 cells after 2 days by sulforhodamine B assay; type: functional; conditions: Lu1, 48 h, read-out: ED50 (the source's name)
[4] = tested on: LNCaP; assay: Cytotoxicity against hormone-dependent human LNCAP cells after 2 days by sulforhodamine B assay; type: functional; conditions: 48 h, read-out: ED50 (the source's name)
[5] = tested on: MDR; assay: Inhibition of MDR pump assessed as potentiation of bruceine A-induced cytotoxicity against human MCF7 cells at 20 ug/mL after 2 days by sulforhodamine B assay; type: cell-based
[6] = tested on: MCF7; assay: Cytotoxicity against human MCF7 cells after 2 days by sulforhodamine B assay in presence of 43 uM (-)-hydnocarpin; type: functional; conditions: MCF7, 48 h, read-out: ED50 (the source's name)
[7] = tested on: MCF7; assay: Ratio ED50 for human MCF7 cells to ED50 for human MCF7 cells in presence of 43 uM (-)-hydnocarpin; type: functional

`COc1cc([C@@H]2Oc3ccc(-c4cc(=O)c5c(O)cc(O)cc5o4)cc3O[C@H]2CO)ccc1O` was tested, and the EC50 [1] was over 10 µM, the ED50 [2] was over 10 µM and the EC50 [3] was over 10 µM. The EC50 [4] was over 10 µM and the ED50 [5] was over 10 µM.

Compound `CCCCCC(=O)O[C@@H]1C[C@]2(C)C(=CC[C@H]2[C@@H]2C[C@@H]([C@@H]3OC3(C)C)O[C@@H]2OC(C)=O)[C@@]2(C)[C@H]1[C@@]1(C)C=CC(=O)C(C)(C)[C@@H]1C[C@H]2OC(C)=O` has an EC50 [1] of over 10 µM, an EC50 [3] of over 10 µM and an EC50 [4] of over 10 µM.

Work on `C/C=C(\C)C(=O)O[C@@H]1C[C@@]2(C)[C@H]([C@@H]3C[C@@H]([C@@H]4OC4(C)C)O[C@@H]3OC(C)=O)CC[C@]2(C)[C@@H]2CC=C3C(C)(C)C(=O)C[C@H](O)[C@]3(C)[C@H]21` [BRUCEAJAVANINONE A] yielded an EC50 [1] of over 10 µM, an EC50 [3] of over 10 µM and an EC50 [4] of over 10 µM.

In the case of `CCCCCC(=O)O[C@@H]1C[C@]2(C)C(=CC[C@H]2[C@@H]2C[C@@H]([C@@H]3OC3(C)C)O[C@@H]2OC(C)=O)[C@]2(C)[C@H](O)C[C@H]3C(C)(C)C(=O)C=C[C@]3(C)[C@@H]12` [BRUCEAJAVANONE A], the EC50 [1] is reported as over 10 µM, the EC50 [3] is reported as over 10 µM and the EC50 [4] is reported as over 10 µM.

In the case of `C/C=C(\C)C(=O)O[C@@H]1C[C@]2(C)C(=CC[C@H]2[C@@H]2C[C@@H]([C@@H]3OC3(C)C)O[C@@H]2OC(C)=O)[C@@]2(C)[C@H]1[C@@]1(C)C=CC(=O)C(C)(C)[C@@H]1C[C@H]2OC(C)=O` [BRUCEAJAVANONE B], the EC50 [1] is reported as over 10 µM, the EC50 [3] is reported as over 10 µM and the EC50 [4] is reported as over 10 µM.

For `C/C=C(\C)C(=O)O[C@@H]1C[C@]2(C)C(=CC[C@H]2[C@@H]2C[C@@H]([C@@H]3OC3(C)C)O[C@H]2OC)[C@]2(C)[C@H](OC(C)=O)C[C@H]3C(C)(C)C(=O)C[C@H](O)[C@]3(C)[C@@H]12` [BRUCEAJAVANONE C], the EC50 [1] was over 10 µM, the EC50 [3] was over 10 µM and the EC50 [4] was over 10 µM.

`COC(=O)[C@@]12OC[C@]34[C@H]([C@@H](O)[C@@H]1O)[C@@]1(C)CC(=O)C(O)=C(C)[C@@H]1C[C@H]3OC(=O)[C@H](OC(=O)/C=C(\C)C(C)C)[C@@H]24` [BRUCEANTIN] showed an EC50 [1] of 0.002 µM, an EC50 [3] of 0.012 µM and an EC50 [6] of 0.00027 µM. For the same compound, the EC50 [4] was 0.011 µM and the “Ratio ED50” value [7] was 7.4.

With `COC(=O)[C@@]12OC[C@]34[C@H]([C@@H](O)[C@@H]1O)[C@@]1(C)CC(=O)C(O)=C(C)[C@@H]1C[C@H]3OC(=O)[C@H](OC(=O)CC(C)C)[C@@H]24` [BRUCEINE A] the EC50 [1] was 0.015 µM, the EC50 [3] was 0.079 µM and the EC50 [6] was 0.0015 µM. The EC50 [4] was 0.096 µM and the “Ratio ED50” value [7] was 10.

With `CC[C@@]1(O)C(=O)OCc2c1cc1n(c2=O)Cc2cc3ccccc3nc2-1` [CAMPTOTHECIN] the EC50 [1] was over 10 µM, the EC50 [3] was over 10 µM and the EC50 [4] was over 10 µM.

`CC(=O)O[C@H]1C(=O)[C@@]2(C)[C@H]([C@H](OC(=O)c3ccccc3)[C@]3(O)C[C@H](OC(=O)[C@H](O)[C@@H](NC(=O)c4ccccc4)c4ccccc4)C(C)=C1C3(C)C)[C@]1(OC(C)=O)CO[C@@H]1C[C@@H]2O` [PACLITAXEL] gave an EC50 [1] of over 10 µM, an EC50 [3] of over 10 µM and an EC50 [4] of over 10 µM.
